# Patent publication US20230270788A1, “COMPOSITION FOR AUGMENTING STEMNESS AND USE THEREOF” (GENECHEM INC., priority 2019, published 2023)
# What was measured:
# [1] = tested on: human bone marrow-derived mesenchymal stem cells (hBMSCs); assay: Cell viability by CCK-8 analysis, hBMSCs; format: cell-based; conditions: FIG. 1; for influence on cell viability: all the concentrations (50, 100, 200, 400 μM); for cell viability: concentration of 100 μM
# Method: (§1) In Example 2, influence of a sialyloligosaccharide on cell viability of stem cells was to be confirmed. Particularly, 3′-sialyllactose, 6′-sialyllactose, and a combination thereof were each treated on the subcultured stem cells in a concentration of 0, 50, 100, 200, or 400 μM, and the cell viability per concentration was verified by cell counting kit-8 (CCK-8) analysis. In particular, of hBMSCs, hATMSCs, and hCBMSCs were seeded in a 96-well plate. Then, the stem cells were treated with 3′-sialyllactose (GeneChem), 6′-sialyllactose (GeneChem), and a mixture of 3′-sialyllactose and 6′-sialyllactose in a concentration of 0, 50, 100, 200, or 400 μM and cultured in a DMEM low glucose medium (HyClone) including 1% antibiotics free of fetal bovine serum (T&I). Next, the viabilities of the cultured cells were confirmed by CCK-8 (Dojindo Laboratories, Kumamoto, Japan) analysis.
# [2] = tested on: human adipose tissue-derived mesenchymal stem cells (hATMSCs); assay: Cell viability by CCK-8 analysis, hATMSCs; format: cell-based; conditions: FIG. 2; for influence on cell viability: all the concentrations (50, 100, 200, 400 μM); for cell viability: concentration of 100 μM
# Method: as §1
# [3] = tested on: human cord blood-derived mesenchymal stem cells (hCBMSCs); assay: Cell viability by CCK-8 analysis, hCBMSCs; format: cell-based; conditions: FIG. 3; for influence on cell viability: all the concentrations (50, 100, 200, 400 μM); for cell viability: concentration of 100 μM
# Method: as §1
# hBMSCs [4] = assay: Stemness markers OCT4, SOX2, NANOG by qRT-PCR and western blot, hBMSCs; format: cell-based, human; conditions: 100 μM, compared to stem cells cultured without a sialyllactose, FIG. 4
# From the text: (§2) In Example 1, human bone marrow-derived mesenchymal stem cells (hBMSCs), human adipose tissue-derived mesenchymal stem cells (hATMSCs), human cord blood-derived mesenchymal stem cells (hCBMSCs), and induced pluripotent stem cells-derived hepatic organoid were used in this experiment. Dulbecco's Modified Eagle's Mediums (DMEM Low Glucose, available from HyClone in Logan, Utah, USA) including 10% fetal bovine serum (available from T&I in Gangwon, Korea), 1% antibiotics (penicillin/streptomycin, available from Gibco in Grand Island, NY, USA) were used as culture mediums of hBMSCs, hATMSCs, and hCBMSCs. After treating 3′-sialyllactose (available from GeneChem), 6′-sialyllactose (available from GeneChem), and a mixture of 3′-sialyllactose and 6′-sialyllactose, each in an amount of 100 μM, the culturing solutions were replaced every 3 days. The negative control was performed in the same manner after adding triple distilled water into the culturing solution. Also, a Hepatocyte Culture Medium (available from Lonza) including an endothelial cell growth medium-2 (available from Lonza), 2.5% FBS, 100 nM dexamethasone (available from Sigma-Aldrich), 20 ng/ml OSM (available from R&D system), and 10 ng/ml HGF (available from PeproTech) was used as the culturing solution of hepatic organoid, and the culturing solution was replaced every 3 days.
# (§3) In Example 3, influence of a sialyloligosaccharide on stemness of stem cells was to be confirmed. Particularly, after treating mesenchymal stem cells with each of 3′-sialyllactose, 6′-sialyllactose, and a combination thereof, mRNAs of OCT4, SOX2, and NANOG, which are stem cell markers of the mesenchymal stem cells, and changes in expression at protein levels were each measured by quantitative real-time reverse transcription-polymerase chain reaction (qRT-PCR) and western blot. In particular, total RNAs were isolated from the cells collected after culturing the cells in the same manner as in Example 1, and change in mRNA expression of the isolated total RNAs was confirmed by qRT-PCR using OCT4 primers available from Bioneer (Daejeon, Korea), SOX2 primers available from Bioneer (P200205), and NANOG primers.
# hATMSCs = assay: Stemness markers OCT4, SOX2, NANOG by qRT-PCR and western blot, hATMSCs; format: cell-based, human; conditions: 100 μM, compared to stem cells cultured without a sialyllactose, FIG. 5
# From the text: as §2, §3
# hCBMSCs = assay: Stemness markers OCT4, SOX2, NANOG by qRT-PCR and western blot, hCBMSCs; format: cell-based, human; conditions: 100 μM, compared to stem cells cultured without a sialyllactose, FIG. 6
# From the text: as §2, §3
# hBMSCs [5] = assay: Cell senescence factors p16 and p53 by qRT-PCR and Western Blot after subculturing; format: cell-based, human; conditions: hBMSCs subcultured, 100 μM, versus without treatment, FIG. 7
# From the text: as §2, with “Also, a Hepatocyte Culture Medium (available from Lonza) including an endothelial cell growth medium-2 (available from Lonza), 2.5% FBS, 100 nM dexamethasone (available from Sigma-Aldrich), 20 ng/ml OSM (available from R&D system), and 10 ng/ml HGF (available from PeproTech) was used as the culturing solution of hepatic organoid, and the culturing solution was replaced every 3 days.” left out
# In Example 4, influence of a sialyloligosaccharide on senescence of stem cells was to be confirmed. Particularly, after treating the hBMSC stem cells with 3′-sialyllactose, changes in expression at mRNA and protein levels of p16 and p53, which are cell senescence factors after subculturing were each measured by qRT-PCT and Western Blot. […]
# hBMSCs [6] = assay: Senescence-associated beta-galactosidase (SA-β-gal) staining; format: cell-based, human; conditions: hBMSCs of 10 passages, 100 μM, versus without treatment, FIG. 7C
# Method: Also, in order to confirm a degree of senescence of the stem cells after being treated with 3′-sialyllactose (GeneChem), senescence-associated beta-galactosidase staining was performed on hBMSCs of 10 passages, treated with 100 μM of 3′-sialyllactose. In particular, after fixing the cells in formalin, the resultant washed with PBS, and 1 mg/mL of a β-gal staining solution X-Gal, 40 mM of a citric acid-sodium phosphate buffer solution, 150 mM of NaCl, 2 mM of MgCl2, 5 mM of potassium ferrocyanide, and 5 mM of potassium ferricyanide (pH 6.0, available from Sigma-Aldrich, St. Louis, USA) were add to the resultant and reacted at 37° C. Then, degrees of senescence activity of the aged cells (blue, positive) and cells not showing activity of senescence (negative) were confirmed using Eclipse TS100 (available from Nikon USA, Melville, N.Y., USA).
# hBMSCs [7] = assay: Proliferation genes CCNA2 and CDK2 expression by qRT-PCR; format: cell-based, human; conditions: hBMSCs having low proliferation ability, 100 μM, mRNA, FIG. 8
# From the text: (§4) In Example 1, human bone marrow-derived mesenchymal stem cells (hBMSCs), human adipose tissue-derived mesenchymal stem cells (hATMSCs), human cord blood-derived mesenchymal stem cells (hCBMSCs), and induced pluripotent stem cells-derived hepatic organoid were used in this experiment. Dulbecco's Modified Eagle's Mediums (DMEM Low Glucose, available from HyClone in Logan, Utah, USA) including 10% fetal bovine serum (available from T&I in Gangwon, Korea), 1% antibiotics (penicillin/streptomycin, available from Gibco in Grand Island, NY, USA) were used as culture mediums of hBMSCs, hATMSCs, and hCBMSCs. After treating 3′-sialyllactose (available from GeneChem), 6′-sialyllactose (available from GeneChem), and a mixture of 3′-sialyllactose and 6′-sialyllactose, each in an amount of 100 μM, the culturing solutions were replaced every 3 days. The negative control was performed in the same manner after adding triple distilled water into the culturing solution. Also, a Hepatocyte Culture Medium (available from Lonza) including an endothelial cell growth medium-2 (available from Lonza), 2.5% FBS, 100 nM dexamethasone (available from Sigma-Aldrich), 20 ng/ml OSM (available from R&D system), and 10 ng/ml HGF (available from PeproTech) was used as the culturing solution of hepatic organoid, and the culturing solution was replaced every 3 days. […]
# hBMSCs [8] = assay: Cell viability per subculturing passage by CCK-8; format: cell-based, human; conditions: hBMSCs subcultured for 4, 7, 10, and 12 passages, 100 μM, FIG. 9
# Method: In Example 6, influence of a sialyloligosaccharide on viability of stem cells according to cell subculturing passages was to be confirmed. Particularly, hBMSCs subcultured for 4, 7, 10, and 12 passages were treated with 3′-sialyllactose in a concentration of 100 μM, and the cell viability was confirmed by cell counting kit-8 assay (CCK-8) analysis. In particular, the hBMSCs were seeded in a 96-well plate. Then, the stem cells were treated with 3′-sialyllactose (GeneChem) in a concentration of 100 μM and cultured in a DMEM low glucose medium (HyClone) including 1% antibiotics free of fetal bovine serum (T&I). Viabilities of the cultured cells were confirmed by the CCK-8 analysis.
# [9] = tested on: induced pluripotent stem cells-derived hepatic organoids; assay: Cell viability of hepatic organoids by CCK analysis; format: cell-based; conditions: concentrations of 0.1, 1, 10, and 100 μM for 6 days, 7th day, FIG. 10
# From the text: as §4
# [10] = tested on: induced pluripotent stem cells-derived hepatic organoids; assay: Metabolic maturity of hepatic organoids, mRNA expression ratios by qRT-PCR; format: cell-based; conditions: 6 days; for ratios of ALB/AFP: FIG. 12
# From the text: as §2
# In Example 8, influence of a sialyloligosaccharide on maturity of induced pluripotent stem cells-derived hepatic organoids was to be confirmed. Particularly, after subculturing the hepatic organoids, the organoids were stabilized in a hepatic medium (HM) for a day and treated with 3′-sialyllactose and 6′-sialyllactose in concentrations of 0, 0.1, 1, 10, and 100 μM for 6 days, and then total RNAs were isolated from the hepatic organoids on the 7th day. The changes in expressions at mRNA level of CYP3A4, CYP2A7, ALB, and AFP, which are markers of metabolic maturity, were each measured by qRT-PCR, and the expression ratios were compared to confirm the metabolic maturity.
Structure (SMILES),influence on cell viability [1],cell viability [1],influence on cell viability [2],cell viability [2],influence on cell viability [3],cell viability [3],expression at mRNA and protein levels of NANOG (hBMSCs [4]),expression at mRNA and protein levels of OCT4 (hBMSCs [4]),expression at mRNA and protein levels of SOX2 (hBMSCs [4]),expression at mRNA and protein levels of NANOG (hATMSCs),expression at mRNA and protein levels of OCT4 (hATMSCs),expression at mRNA and protein levels of SOX2 (hATMSCs),expression at mRNA and protein levels of NANOG (hCBMSCs),expression at mRNA and protein levels of OCT4 (hCBMSCs),expression at mRNA and protein levels of SOX2 (hCBMSCs),cell viability of hepatic organoids [9],further results
CC(=O)N[C@H]1[C@H]([C@H](O)[C@H](O)CO)O[C@@](O[C@H]2[C@@H](O)[C@@H](CO)O[C@@H](O[C@H]3[C@H](O)[C@@H](O)C(O)O[C@@H]3CO)[C@@H]2O)(C(=O)O)C[C@@H]1O (some centres unmarked) [3′-sialyllactose],did not negatively influence the cell viability,increased significantly,did not negatively influence the cell viability,increased significantly,did not negatively influence the cell viability,increased significantly,significantly increased,significantly increased,significantly increased,significantly increased,significantly increased,significantly increased,significantly increased,significantly increased,significantly increased,significantly increased,"expression at mRNA and protein levels of p16 (hBMSCs [5]): very low expression; expression at mRNA and protein levels of p53 (hBMSCs [5]): very low expression; SA-β-gal activity (hBMSCs [6]): low SA-β-gal activity; expression of CCNA2 (hBMSCs [7]): significantly increased; expression of CDK2 (hBMSCs [7]): significantly increased; cell viability (hBMSCs [8]): significantly increased; ratios of ALB/AFP ([10]; concentrations of 1, 10, and 100 μM): significantly increased; ratios of CYP3A4/CYP3A7 ([10]; concentrations of 1 and 10 μM, FIG. 11): significantly increased"
CC(=O)N[C@H]1[C@H]([C@H](O)[C@H](O)CO)O[C@@](OC[C@H]2O[C@@H](O[C@H]3[C@H](O)[C@@H](O)[C@H](O)O[C@@H]3CO)[C@H](O)[C@@H](O)[C@H]2O)(C(=O)O)C[C@@H]1O [6′-sialyllactose],did not negatively influence the cell viability,increased significantly,did not negatively influence the cell viability,increased significantly,did not negatively influence the cell viability,increased significantly,significantly increased,significantly increased,significantly increased,significantly increased,significantly increased,significantly increased,significantly increased,significantly increased,significantly increased,significantly increased,ratios of ALB/AFP ([10]; concentrations of 0.1 and 100 μM): significantly increased
